From patent US20230241245A1, “Therapeutic Carbon Nanomaterial H2S Oxidants for Biological Polysulfide Synthesis” (The Texas A&M University System, priority 2020, published 2023)

System: bEnd.3 cells
Assay: SSP4 fluorescence photomicrographs of bEnd.3 cells with or without AP39 and PEG-OAC
Assay type: cell-based
Details: PEG-OACs 4 mg/L

With `O=C(CCCCCCCCC[P+](c1ccccc1)(c1ccccc1)c1ccccc1)Oc1ccc(-c2cc(=S)ss2)cc1.[Br-]` [AP39] the “SSP4 fluorescence, agent alone relative to control” value was “increases the fluorescence signal”.
